Data taken from patent US5747447A, “Stable polypeptide composition” (COR Therapeutics, priority 1995, dated 1998).
pIC50: −log10 of the molar value. Like-named read-outs stand apart in the source and are kept apart here. Where a SMILES comes first, the peptide text is derived from it. Bridges are numbered along the chain shown (N, C = ends). [ ]: non-standard residue; d: D form. hArg = N=C(N)NCCCC[C@H](N)C(=O)O; Mpa = O=C(O)CCS

What was measured:
[1] = Description: 20 ml aliquots of the above solution were placed into Type I glass vials and sealed with rubber stoppers and aluminum closures under sterile conditions and stored at a constant temperature. Test sample vials from each temperature condition, -15° C., 5° C., 30° C. and 45° C. were removed periodically and individually assessed and analyzed for stability by HPLC and visual evaluation as described in Example 1.
[2] = Stability of polypeptide I in citrate buffer, HPLC and visual (Example 1); assay type: physicochemical; settings: citrate buffer pH 5.00 and 5.50 versus pH 6.0
Description: Citrate buffer solution is prepared by mixing citric acid in a volumetric flask to give a final citrate concentration of 25 mM with Nanopure water and adding NaOH to adjust the pH.
One ml aliquots of the above solution of polypeptide in citrate buffer were sealed in borosilicate glass ampules under sterile conditions and stored at a constant temperature. Test sample ampules from each pH and temperature condition 4° C., 50° C. and 70° C. were removed periodically, visually assessed and then analyzed separately by HPLC using a mobile phase comprising acetonitrile (MeCN) and 0.1% trifluoroacetic (TFA) in water. This stability was evaluated by conventional assay methods applicable to purity, weight or size of polypeptides. These included not only visual evaluations, such as discoloration, transparency and precipitation, and included assays normally applied to separate polypeptides from each other and from other materials by reversed phase high performance liquid chromatography (HPLC).
Results of these experiments are set forth in Table 1 in which the stability is expressed in terms of the percentage of main peak of original polypeptide found in the sample analyzed by HPLC. The composition was also found to be normal on visual evaluation.

M21 melanoma cells = test: M21 melanoma cell adhesion to vitronectin-coated plates; assay type: cell-based
Description: M21 melanoma cells were labelled with ^35 S-methionine, and then added to vitronectin-coated plates in the presence of the indicated concentrations of purified snake venom peptides. Cell attachment was measured by solubilizing the cells remaining after an incubation and wash, as previously describe.

vitronectin receptor = vitronectin receptor (Homo sapiens, UniProt P05106+P06756); test: plate assay, inhibition of vitronectin binding to vitronectin receptor; settings: at concentrations up to 1 uM
Chain of vitronectin receptor (P06756 31-889 limits assumed): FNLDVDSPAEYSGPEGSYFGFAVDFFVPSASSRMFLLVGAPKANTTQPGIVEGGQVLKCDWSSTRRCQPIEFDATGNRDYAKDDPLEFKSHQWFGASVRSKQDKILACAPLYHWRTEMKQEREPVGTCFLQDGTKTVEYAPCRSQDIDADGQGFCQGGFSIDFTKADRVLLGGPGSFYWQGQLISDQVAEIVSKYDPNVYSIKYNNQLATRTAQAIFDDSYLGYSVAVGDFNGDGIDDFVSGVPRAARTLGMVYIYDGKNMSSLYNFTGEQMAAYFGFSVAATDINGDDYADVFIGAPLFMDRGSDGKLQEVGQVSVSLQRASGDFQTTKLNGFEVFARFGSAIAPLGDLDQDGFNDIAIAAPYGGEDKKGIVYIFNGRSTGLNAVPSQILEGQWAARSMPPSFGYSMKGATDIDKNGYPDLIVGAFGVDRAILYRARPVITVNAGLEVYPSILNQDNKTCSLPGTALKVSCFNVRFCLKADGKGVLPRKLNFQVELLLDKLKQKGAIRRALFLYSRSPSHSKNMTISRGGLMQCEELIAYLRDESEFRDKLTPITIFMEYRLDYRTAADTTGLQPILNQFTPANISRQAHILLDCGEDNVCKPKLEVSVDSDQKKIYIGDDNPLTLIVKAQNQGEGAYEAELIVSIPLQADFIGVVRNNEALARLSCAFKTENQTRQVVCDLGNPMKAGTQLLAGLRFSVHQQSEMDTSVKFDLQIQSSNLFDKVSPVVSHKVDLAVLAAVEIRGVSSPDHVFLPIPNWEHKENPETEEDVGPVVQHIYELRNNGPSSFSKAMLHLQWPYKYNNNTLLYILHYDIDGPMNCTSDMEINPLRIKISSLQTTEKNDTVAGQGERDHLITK
Chain of vitronectin receptor (P06756 891-1048 limits assumed): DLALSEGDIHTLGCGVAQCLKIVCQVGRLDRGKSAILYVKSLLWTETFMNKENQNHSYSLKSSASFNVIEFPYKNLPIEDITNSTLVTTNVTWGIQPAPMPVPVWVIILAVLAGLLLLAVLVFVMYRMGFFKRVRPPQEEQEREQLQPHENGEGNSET
Chain of vitronectin receptor (P05106 27-788): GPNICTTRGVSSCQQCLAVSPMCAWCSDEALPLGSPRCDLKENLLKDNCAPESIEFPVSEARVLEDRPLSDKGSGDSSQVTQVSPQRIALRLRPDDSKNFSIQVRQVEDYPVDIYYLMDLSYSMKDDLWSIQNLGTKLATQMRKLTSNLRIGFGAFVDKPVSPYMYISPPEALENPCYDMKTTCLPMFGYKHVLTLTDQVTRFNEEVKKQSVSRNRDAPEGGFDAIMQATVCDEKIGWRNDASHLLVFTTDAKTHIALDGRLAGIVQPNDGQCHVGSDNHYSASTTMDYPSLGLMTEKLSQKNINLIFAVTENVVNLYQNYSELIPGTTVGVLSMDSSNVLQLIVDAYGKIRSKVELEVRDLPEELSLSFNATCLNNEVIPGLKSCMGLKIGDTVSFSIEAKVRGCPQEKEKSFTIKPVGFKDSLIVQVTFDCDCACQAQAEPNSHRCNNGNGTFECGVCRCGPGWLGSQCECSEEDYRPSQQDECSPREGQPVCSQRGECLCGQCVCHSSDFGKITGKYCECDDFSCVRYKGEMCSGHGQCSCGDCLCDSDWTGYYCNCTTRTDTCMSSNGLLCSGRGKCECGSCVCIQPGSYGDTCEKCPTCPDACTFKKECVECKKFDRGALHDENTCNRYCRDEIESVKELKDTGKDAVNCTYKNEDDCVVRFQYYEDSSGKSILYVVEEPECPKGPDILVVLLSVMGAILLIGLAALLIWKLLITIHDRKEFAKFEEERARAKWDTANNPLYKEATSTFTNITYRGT
Excerpt: The PAI assay systems further include characterization of the PAI specificity by binding inhibition assays identical to that above but substituting other adhesive proteins for Fg and other receptors for GP IIb-IIIa. In particular, inhibition of the binding of vitronectin to the vitronectin receptor; fibronectin to the fibronectin receptor; fibronectin to GP IIb-IIIa and fibrinogen and/or vWF to GP IIb-IIIa can be assessed. The adhesive protein and receptors for these assays are available in the art.

[3] = target: ADP-induced human platelet aggregation (Homo sapiens, UniProt P05106+P08514); test: standard aggregation inhibition assay (ADP-induced human platelet aggregation); assay type: cell-based; settings: for pIC50: ADP-induced human platelet aggregation, read-out: Appr, IC50
Chain of ADP-induced human platelet aggregation (P08514 32-1039): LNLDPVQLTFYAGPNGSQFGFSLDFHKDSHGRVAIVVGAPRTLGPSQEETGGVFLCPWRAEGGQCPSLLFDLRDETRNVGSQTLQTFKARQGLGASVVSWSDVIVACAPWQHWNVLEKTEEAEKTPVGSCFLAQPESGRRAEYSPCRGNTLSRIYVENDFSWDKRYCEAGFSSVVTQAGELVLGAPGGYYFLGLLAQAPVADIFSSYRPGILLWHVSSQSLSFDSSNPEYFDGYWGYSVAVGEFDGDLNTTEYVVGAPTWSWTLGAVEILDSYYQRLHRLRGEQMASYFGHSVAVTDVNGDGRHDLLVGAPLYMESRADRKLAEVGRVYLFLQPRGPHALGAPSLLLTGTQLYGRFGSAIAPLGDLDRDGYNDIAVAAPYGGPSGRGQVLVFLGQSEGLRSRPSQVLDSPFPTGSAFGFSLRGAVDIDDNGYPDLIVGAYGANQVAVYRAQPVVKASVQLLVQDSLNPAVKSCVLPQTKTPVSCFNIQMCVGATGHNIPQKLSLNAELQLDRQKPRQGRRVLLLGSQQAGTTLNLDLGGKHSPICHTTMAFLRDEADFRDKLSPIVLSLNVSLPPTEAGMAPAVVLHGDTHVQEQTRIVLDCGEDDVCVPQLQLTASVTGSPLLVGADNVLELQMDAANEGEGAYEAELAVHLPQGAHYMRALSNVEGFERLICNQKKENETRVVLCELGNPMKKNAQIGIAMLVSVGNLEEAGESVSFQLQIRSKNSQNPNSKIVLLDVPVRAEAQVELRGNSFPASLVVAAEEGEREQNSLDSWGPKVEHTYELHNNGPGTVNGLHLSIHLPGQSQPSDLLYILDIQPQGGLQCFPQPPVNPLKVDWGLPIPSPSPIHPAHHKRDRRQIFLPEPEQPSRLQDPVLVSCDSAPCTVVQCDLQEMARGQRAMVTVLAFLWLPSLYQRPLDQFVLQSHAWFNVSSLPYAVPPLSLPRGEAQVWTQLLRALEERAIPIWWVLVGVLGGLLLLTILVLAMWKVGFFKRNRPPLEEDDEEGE
Chain of ADP-induced human platelet aggregation (P05106 27-788): as the sequence (P05106 27-788) above
Excerpt: 2. Standard assays directly applied to platelet aggregation, such as those described by Gann, Z.-R., et al., J Biol Chem (1988) 263:19827-19832; Huang, T. F., et al., J Biol Chem (1987) 262:16157-16163; Biochemistry (1989) 28:661-666, cited above and incorporated herein by reference;

GP IIb-IIIa = target: T1, GP IIb-IIIa (Homo sapiens, UniProt P05106+P08514); assay type: binding; settings: plate assays
T1 construct: GP IIb-IIIa, prepared in purified form; from tissue; own knowledge of the cited Fitzgerald et al. 1985 method
T1 sequence (P08514 32-887 limits assumed): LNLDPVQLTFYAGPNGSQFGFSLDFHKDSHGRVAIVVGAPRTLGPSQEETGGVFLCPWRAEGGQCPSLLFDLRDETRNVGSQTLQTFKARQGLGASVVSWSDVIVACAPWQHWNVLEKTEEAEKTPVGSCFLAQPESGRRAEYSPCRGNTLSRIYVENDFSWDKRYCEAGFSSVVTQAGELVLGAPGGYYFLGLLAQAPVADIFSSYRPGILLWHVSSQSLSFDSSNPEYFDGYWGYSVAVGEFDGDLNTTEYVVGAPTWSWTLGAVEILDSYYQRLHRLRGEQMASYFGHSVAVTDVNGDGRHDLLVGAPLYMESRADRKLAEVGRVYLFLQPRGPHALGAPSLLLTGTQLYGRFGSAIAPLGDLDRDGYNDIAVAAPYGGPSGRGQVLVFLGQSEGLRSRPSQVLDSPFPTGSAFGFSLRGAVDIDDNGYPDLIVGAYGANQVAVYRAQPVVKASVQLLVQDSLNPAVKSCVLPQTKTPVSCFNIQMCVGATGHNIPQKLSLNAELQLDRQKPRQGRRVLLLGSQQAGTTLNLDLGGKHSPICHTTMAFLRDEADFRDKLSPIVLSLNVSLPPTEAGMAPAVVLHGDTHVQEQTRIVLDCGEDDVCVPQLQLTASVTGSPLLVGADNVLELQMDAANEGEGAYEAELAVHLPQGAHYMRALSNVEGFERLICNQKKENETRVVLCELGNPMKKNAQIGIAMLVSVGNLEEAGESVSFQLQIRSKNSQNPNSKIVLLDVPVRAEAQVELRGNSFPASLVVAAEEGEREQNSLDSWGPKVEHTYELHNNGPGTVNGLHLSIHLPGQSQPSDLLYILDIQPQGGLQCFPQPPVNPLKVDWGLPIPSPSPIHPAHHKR
T1 sequence (P08514 891-1039 limits assumed): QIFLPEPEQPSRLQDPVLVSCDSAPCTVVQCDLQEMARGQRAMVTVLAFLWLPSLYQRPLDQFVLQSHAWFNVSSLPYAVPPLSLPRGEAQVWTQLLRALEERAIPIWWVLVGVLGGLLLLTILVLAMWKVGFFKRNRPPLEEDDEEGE
T1 sequence (P05106 27-788): as the sequence (P05106 27-788) above
Description: In the assay, GP IIb-IIIa, prepared in purified form, for example as described by Fitzgerald, L. A., et al., Anal Biochem (1985) 151:169-177, incorporated herein by reference, is coated onto a solid support such as beads, test tubes, or microtiter plates. The coated support is then contacted with fibrinogen and with the test material and incubated for a sufficient time to permit maximal binding of fibrinogen to the immobilized GP IIb-IIIa. Fibrinogen is typically provided at a concentration of about 5-50 nM and the test material can, if desired, be added at a series of dilutions. Typical incubations are 2-4 hr at 35° C., the time and temperature being interdependent.
After incubation, the solution containing the fibrinogen and test material is removed and the level of binding of fibrinogen measured by quantitating bound fibrinogen to GP IIb-IIIa. Any suitable means of detection can be used, but it is convenient to employ labeled fibrinogen, for example using radioactive, fluorescent or biotinylated labels. Such methods are well known and need not be elaborated here.
Assessment of the results is aided by employing a control sample, usually identical to the test sample except that the test substance is absent. In this case, percent inhibition may be calculated using the basis, so that [formula] Other measures of inhibition effectiveness, such as IC50, can also be used.

N=C(N)NCCCC[C@@H]1NC(=O)CCSSC[C@@H](C(N)=O)NC(=O)[C@@H]2CCCN2C(=O)[C@H](Cc2c[nH]c3ccccc23)NC(=O)[C@H](CC(=O)O)NC(=O)CNC1=O [I, Mpr-L-homoarginine-Gly-Asp-Trp-Pro-Cys-NH2 .cndot.acetate] ([Mpa][hArg]GDWPC-NH2; disulfide 1-7)
Peptide Stability in 5.5 pH Citrate Buffer Composition (HPLC as in Example 1) ([1]; 5° C., Time (days) 0): 98.8
Peptide Stability in 5.5 pH Citrate Buffer Composition (HPLC as in Example 1) ([1]; 5° C., Time (days) 76): 98.6
Peptide Stability in 5.5 pH Citrate Buffer Composition (HPLC as in Example 1) ([1]; 5° C., Time (days) 126): 98.5
Peptide Stability in 5.5 pH Citrate Buffer Composition (HPLC as in Example 1) ([1]; 5° C., Time (days) 222): 98.5
Peptide Stability in 5.5 pH Citrate Buffer Composition (HPLC as in Example 1) ([1]; 5° C., Time (days) 301): 98.2
Peptide Stability in 5.5 pH Citrate Buffer Composition (HPLC as in Example 1) ([1]; 5° C., Time (days) 399): 98.2
Peptide Stability in 5.5 pH Citrate Buffer Composition (HPLC as in Example 1) ([1]; 5° C., Time (days) 572): 98.2
Peptide Stability in 5.5 pH Citrate Buffer Composition (HPLC as in Example 1) ([1]; 30° C. after one month at 5° C., Time (days) 45): 97.4
Peptide Stability in 5.5 pH Citrate Buffer Composition (HPLC as in Example 1) ([1]; 30° C. after one month at 5° C., Time (days) 95): 96.4
Peptide Stability in 5.5 pH Citrate Buffer Composition (HPLC as in Example 1) ([1]; 30° C. after one month at 5° C., Time (days) 191): 95.8
Peptide Stability in 5.5 pH Citrate Buffer Composition (HPLC as in Example 1) ([1]; 30° C. after one month at 5° C., Time (days) 270): 95.1
Peptide Stability in 5.5 pH Citrate Buffer Composition (HPLC as in Example 1) ([1]; 30° C. after one month at 5° C., Time (days) 368): 94.5
Peptide Stability in 5.5 pH Citrate Buffer Composition (HPLC as in Example 1) ([1]; 30° C. after one month at 5° C., Time (days) 541): 93.6
Peptide Stability in 5.5 pH Citrate Buffer Composition (HPLC as in Example 1) ([1]; 45° C. after one month at 5° C., Time (days) 45): 96.1
Peptide Stability in 5.5 pH Citrate Buffer Composition (HPLC as in Example 1) ([1]; 45° C. after one month at 5° C., Time (days) 95): 94.1
Peptide Stability in 5.5 pH Citrate Buffer Composition (HPLC as in Example 1) ([1]; 45° C. after one month at 5° C., Time (days) 191): 92.4
Peptide Stability in 5.5 pH Citrate Buffer Composition (HPLC as in Example 1) ([1]; 45° C. after one month at 5° C., Time (days) 270): 89.8
Peptide Stability in 5.5 pH Citrate Buffer Composition (HPLC as in Example 1) ([1]; 45° C. after one month at 5° C., Time (days) 368): 86.5
Peptide Stability in 5.5 pH Citrate Buffer Composition (HPLC as in Example 1) ([1]; 45° C. after one month at 5° C., Time (days) 541): 76.1
Peptide Stability in 5.5 pH Citrate Buffer Composition (HPLC as in Example 1) ([1]; -15° C. after one month at 5° C., Time (days) 45): 98.9
Peptide Stability in 5.5 pH Citrate Buffer Composition (HPLC as in Example 1) ([1]; -15° C. after one month at 5° C., Time (days) 95): 99.0
Peptide Stability in 5.5 pH Citrate Buffer Composition (HPLC as in Example 1) ([1]; -15° C. after one month at 5° C., Time (days) 191): 99.1
Peptide Stability in 5.5 pH Citrate Buffer Composition (HPLC as in Example 1) ([1]; -15° C. after one month at 5° C., Time (days) 270): 98.7
Peptide Stability in 5.5 pH Citrate Buffer Composition (HPLC as in Example 1) ([1]; -15° C. after one month at 5° C., Time (days) 368): 98.6
Peptide Stability in 5.5 pH Citrate Buffer Composition (HPLC as in Example 1) ([1]; -15° C. after one month at 5° C., Time (days) 541): 98.9
stability of liquid solution (in words) [2]: unexpectedly very stable at about 4° C., still stable at up to about 50 °C and much more stable at 70 °C in comparison to citrate buffer solutions at pH 6.0

C[C@H](NC(=O)[C@@H]1CSSC[C@H](NC(=O)CN)C(=O)NCC(=O)N[C@@H](CCCCN)C(=O)NCC(=O)N[C@@H](CC(=O)O)C(=O)N[C@@H](Cc2c[nH]c3ccccc23)C(=O)N2CCC[C@H]2C(=O)N1)C(N)=O [Analog #3, G-C-G-K-G-D-W-P-C-A-NH2]
M21 cell attachment to vitronectin (in words) (M21 melanoma cells): ineffective up to 60 uM

[E^28 L^41 C^64 ]barbourin (28-73) [Analog #1]
affinity for VnR (in words) (vitronectin receptor): relative lack of affinity
platelet aggregation inhibition activity (in words) [3]: potent inhibitors of platelet aggregation
M21 cell attachment to vitronectin (in words) (M21 melanoma cells): Neither barbourin nor Peptide 1 (truncated barbourin) had a significant effect

NCCCC[C@@H]1NC(=O)CNC(=O)[C@@H](N)CSSC[C@@H](C(N)=O)NC(=O)[C@@H]2CCCN2C(=O)[C@H](Cc2c[nH]c3ccccc23)NC(=O)[C@H](CC(=O)O)NC(=O)CNC1=O [Analog #5, C-G-K-G-D-W-P-C-NH2] (H-CGKGDWPC-NH2; disulfide 1-8)
differential fibrinogen/GP IIb-IIIa versus vitronectin/vitronectin receptor (in words) (GP IIb-IIIa): quite specific
pIC50 [3]: 5.30

C[C@H](NC(=O)[C@@H]1CSSC[C@H](NC(=O)CN)C(=O)NCC(=O)N[C@@H](CCCNC(=N)N)C(=O)NCC(=O)N[C@@H](CC(=O)O)C(=O)N[C@@H](Cc2c[nH]c3ccccc23)C(=O)N2CCC[C@H]2C(=O)N1)C(N)=O [reference compound] (H-GCGRGDWPCA-NH2; disulfide 2-9)
M21 cell attachment to vitronectin (in words) (M21 melanoma cells): potent inhibitors of cell attachment

C[C@H](NC(=O)[C@@H]1CSSC[C@H](NC(=O)CN)C(=O)N[C@@H](CCCCN)C(=O)NCC(=O)N[C@@H](CC(=O)O)C(=O)N[C@@H](Cc2c[nH]c3ccccc23)C(=O)N2CCC[C@H]2C(=O)N1)C(N)=O [Analog #4, G-C-K-G-D-W-P-C-A-NH2] (H-GCKGDWPCA-NH2; disulfide 2-8)
differential fibrinogen/GP IIb-IIIa versus vitronectin/vitronectin receptor (in words) (GP IIb-IIIa): highest differential
pIC50 [3]: 5.30
